Reference: the NIST ThermoML archive (doi:10.1016/j.jct.2011.05.003)
± gives the expanded uncertainty stated by the source.

Experiment: xn = mol fraction of the nth substance listed
Conditions: Liquid; for speed of sound: 101 kPa, Sing-around technique in a fixed-path interferometer; for mass density: 101.3 kPa, Vibrating tube method

Compound: CCCNCCC [dipropylamine] + CCCCCC(C)=O
- speed of sound (293.15 K, x2 = 0.0603): 1213.9 ± 1.2 m/s
- speed of sound (293.15 K, x2 = 0.1045): 1217.2 ± 1.2 m/s
- speed of sound (293.15 K, x2 = 0.1559): 1221 ± 1.2 m/s
- speed of sound (293.15 K, x2 = 0.2013): 1224.3 ± 1.2 m/s
- speed of sound (293.15 K, x2 = 0.2526): 1228.1 ± 1.2 m/s
- speed of sound (293.15 K, x2 = 0.2936): 1231.1 ± 1.2 m/s
- speed of sound (293.15 K, x2 = 0.3492): 1235.2 ± 1.2 m/s
- speed of sound (293.15 K, x2 = 0.4579): 1243 ± 1.2 m/s
- speed of sound (293.15 K, x2 = 0.493): 1245.6 ± 1.2 m/s
- speed of sound (293.15 K, x2 = 0.5494): 1249.6 ± 1.2 m/s
- speed of sound (293.15 K, x2 = 0.5894): 1252.6 ± 1.2 m/s
- speed of sound (293.15 K, x2 = 0.6478): 1256.9 ± 1.2 m/s
- speed of sound (293.15 K, x2 = 0.6896): 1259.9 ± 1.2 m/s
- speed of sound (293.15 K, x2 = 0.7615): 1265.1 ± 1.2 m/s
- speed of sound (293.15 K, x2 = 0.8025): 1268 ± 1.2 m/s
- speed of sound (293.15 K, x2 = 0.8139): 1268.8 ± 1.2 m/s
- speed of sound (293.15 K, x2 = 0.8993): 1275 ± 1.2 m/s
- speed of sound (293.15 K, x2 = 0.948): 1278.4 ± 1.2 m/s
- mass density (293.15 K, x2 = 0.0603): 743.175 ± 0.24 kg/m3
- mass density (293.15 K, x2 = 0.1045): 746.717 ± 0.24 kg/m3
- mass density (293.15 K, x2 = 0.1559): 750.817 ± 0.24 kg/m3
- mass density (293.15 K, x2 = 0.2013): 754.413 ± 0.24 kg/m3
- mass density (293.15 K, x2 = 0.2526): 758.468 ± 0.24 kg/m3
- mass density (293.15 K, x2 = 0.2936): 761.7 ± 0.24 kg/m3
- mass density (293.15 K, x2 = 0.3492): 766.042 ± 0.24 kg/m3
- mass density (293.15 K, x2 = 0.4579): 774.494 ± 0.24 kg/m3
- mass density (293.15 K, x2 = 0.493): 777.204 ± 0.24 kg/m3
- mass density (293.15 K, x2 = 0.5494): 781.554 ± 0.24 kg/m3
- mass density (293.15 K, x2 = 0.5894): 784.624 ± 0.24 kg/m3
- mass density (293.15 K, x2 = 0.6478): 789.087 ± 0.24 kg/m3
- mass density (293.15 K, x2 = 0.6896): 792.266 ± 0.24 kg/m3
- mass density (293.15 K, x2 = 0.7615): 797.717 ± 0.24 kg/m3
- mass density (293.15 K, x2 = 0.8025): 800.833 ± 0.24 kg/m3
- mass density (293.15 K, x2 = 0.8139): 801.69 ± 0.24 kg/m3
- mass density (293.15 K, x2 = 0.8993): 808.079 ± 0.24 kg/m3
- mass density (293.15 K, x2 = 0.948): 811.684 ± 0.24 kg/m3
- speed of sound (298.15 K, x2 = 0.0521): 1191.8 ± 1.2 m/s
- speed of sound (298.15 K, x2 = 0.1048): 1196 ± 1.2 m/s
- speed of sound (298.15 K, x2 = 0.1557): 1199.8 ± 1.2 m/s
- speed of sound (298.15 K, x2 = 0.2): 1203.2 ± 1.2 m/s
- speed of sound (298.15 K, x2 = 0.2526): 1207.1 ± 1.2 m/s
- speed of sound (298.15 K, x2 = 0.2962): 1210.4 ± 1.2 m/s
- speed of sound (298.15 K, x2 = 0.3436): 1213.9 ± 1.2 m/s
- speed of sound (298.15 K, x2 = 0.385): 1217 ± 1.2 m/s
- speed of sound (298.15 K, x2 = 0.4478): 1221.7 ± 1.2 m/s
- speed of sound (298.15 K, x2 = 0.5427): 1228.8 ± 1.2 m/s
- speed of sound (298.15 K, x2 = 0.6436): 1236.4 ± 1.2 m/s
- speed of sound (298.15 K, x2 = 0.69): 1239.8 ± 1.2 m/s
- speed of sound (298.15 K, x2 = 0.7418): 1243.6 ± 1.2 m/s
- speed of sound (298.15 K, x2 = 0.8061): 1248.5 ± 1.2 m/s
- speed of sound (298.15 K, x2 = 0.8548): 1252 ± 1.2 m/s
- speed of sound (298.15 K, x2 = 0.8993): 1255.3 ± 1.2 m/s
- speed of sound (298.15 K, x2 = 0.9528): 1259.1 ± 1.2 m/s
- mass density (298.15 K, x2 = 0.0521): 738.054 ± 0.24 kg/m3
- mass density (298.15 K, x2 = 0.1048): 742.273 ± 0.24 kg/m3
- mass density (298.15 K, x2 = 0.1557): 746.324 ± 0.24 kg/m3
- mass density (298.15 K, x2 = 0.2): 749.853 ± 0.24 kg/m3
- mass density (298.15 K, x2 = 0.2526): 754.005 ± 0.24 kg/m3
- mass density (298.15 K, x2 = 0.2962): 757.449 ± 0.24 kg/m3
- mass density (298.15 K, x2 = 0.3436): 761.173 ± 0.24 kg/m3
- mass density (298.15 K, x2 = 0.385): 764.422 ± 0.24 kg/m3
- mass density (298.15 K, x2 = 0.4478): 769.307 ± 0.24 kg/m3
- mass density (298.15 K, x2 = 0.5427): 776.662 ± 0.24 kg/m3
- mass density (298.15 K, x2 = 0.6003): 781.222 ± 0.24 kg/m3
- mass density (298.15 K, x2 = 0.6436): 784.41 ± 0.24 kg/m3
- mass density (298.15 K, x2 = 0.69): 787.95 ± 0.24 kg/m3
- mass density (298.15 K, x2 = 0.7418): 791.892 ± 0.24 kg/m3
- mass density (298.15 K, x2 = 0.8061): 796.768 ± 0.24 kg/m3
- mass density (298.15 K, x2 = 0.8548): 800.432 ± 0.24 kg/m3
- mass density (298.15 K, x2 = 0.8993): 803.773 ± 0.24 kg/m3
- mass density (298.15 K, x2 = 0.9528): 807.724 ± 0.24 kg/m3
- speed of sound (303.15 K, x2 = 0.0578): 1172.1 ± 1.2 m/s
- speed of sound (303.15 K, x2 = 0.1054): 1175.8 ± 1.2 m/s
- speed of sound (303.15 K, x2 = 0.1579): 1179.9 ± 1.2 m/s
- speed of sound (303.15 K, x2 = 0.2005): 1183.2 ± 1.2 m/s
- speed of sound (303.15 K, x2 = 0.2497): 1187.1 ± 1.2 m/s
- speed of sound (303.15 K, x2 = 0.2951): 1190.6 ± 1.2 m/s
- speed of sound (303.15 K, x2 = 0.3476): 1194.7 ± 1.2 m/s
- speed of sound (303.15 K, x2 = 0.3856): 1197.7 ± 1.2 m/s
- speed of sound (303.15 K, x2 = 0.4504): 1202.6 ± 1.2 m/s
- speed of sound (303.15 K, x2 = 0.5442): 1209.8 ± 1.2 m/s
- speed of sound (303.15 K, x2 = 0.5891): 1213.4 ± 1.2 m/s
- speed of sound (303.15 K, x2 = 0.642): 1217.3 ± 1.2 m/s
- speed of sound (303.15 K, x2 = 0.687): 1220.8 ± 1.2 m/s
- speed of sound (303.15 K, x2 = 0.7413): 1225 ± 1.2 m/s
- speed of sound (303.15 K, x2 = 0.7994): 1229.4 ± 1.2 m/s
- speed of sound (303.15 K, x2 = 0.8564): 1233.7 ± 1.2 m/s
- speed of sound (303.15 K, x2 = 0.8993): 1236.9 ± 1.2 m/s
- speed of sound (303.15 K, x2 = 0.9497): 1240 ± 1.2 m/s
- mass density (303.15 K, x2 = 0.0578): 733.883 ± 0.24 kg/m3
- mass density (303.15 K, x2 = 0.1054): 737.733 ± 0.24 kg/m3
- mass density (303.15 K, x2 = 0.1579): 741.943 ± 0.24 kg/m3
- mass density (303.15 K, x2 = 0.2005): 745.356 ± 0.24 kg/m3
- mass density (303.15 K, x2 = 0.2497): 749.277 ± 0.24 kg/m3
- mass density (303.15 K, x2 = 0.2951): 752.865 ± 0.24 kg/m3
- mass density (303.15 K, x2 = 0.3476): 756.998 ± 0.24 kg/m3
- mass density (303.15 K, x2 = 0.3856): 759.993 ± 0.24 kg/m3
- mass density (303.15 K, x2 = 0.4504): 765.062 ± 0.24 kg/m3
- mass density (303.15 K, x2 = 0.5442): 772.346 ± 0.24 kg/m3
- mass density (303.15 K, x2 = 0.5891): 775.815 ± 0.24 kg/m3
- mass density (303.15 K, x2 = 0.642): 779.872 ± 0.24 kg/m3
- mass density (303.15 K, x2 = 0.687): 783.319 ± 0.24 kg/m3
- mass density (303.15 K, x2 = 0.7413): 787.465 ± 0.24 kg/m3
- mass density (303.15 K, x2 = 0.7994): 791.897 ± 0.24 kg/m3
- mass density (303.15 K, x2 = 0.8564): 796.191 ± 0.24 kg/m3
- mass density (303.15 K, x2 = 0.8993): 799.423 ± 0.24 kg/m3
- mass density (303.15 K, x2 = 0.9497): 803.188 ± 0.24 kg/m3
